Our source for the viability, T/C and IC50 values is PubChem BioAssay AID1963423 (Molecular Pharmacology Branch, DTP, NCI, 2024).

The subject of the test is 439559-082-T-J2-PDC complex spheroid growth. Kind of test: Anticancer human tumor 439559-082-T-J2-PDC patient-derived colon adenocarcinoma cell line growth inhibition [Asc]. The following applies: for viability, T/C: stronger effect = lower value. As for the experimental part: Multicellular complex tumor spheroid response to apoptosis pathway targeting inhibitors Alrizomadlin, Pelcitoclax, and Dasminapant in combination with a variety of drugs and investigational agents in selected tumor cell lines
The MDM2 inhibitor alrizomadlin, the Bcl-2/Bcl-xL inhibitor pelcitoclax, and the IAPs inhibitor dasminapant were evaluated both individually and in combination with standard of care and investigational anticancer small molecules within a complex spheroid model of solid tumors. . Complex spheroids include a stromal component modeled by human endothelial cells (HUVEC) and fibroblasts modeled by human mesenchymal stem cells (MSCs). The concentration ranges selected for each drug and investigational agent were based upon clinically achievable concentrations if the clinical Cmax of the agent was known.
Compounds. The drugs and investigational agents: alrizomadlin (APG-115; NSC831270), pelcitoclax (APG-1252; NSC835773), dasminapant (APG-1387;NSC834197), TAK-243 (NSC785004), copanlisib (NSC809693), olaparib (NSC753686), talazoparib (NSC767125), cobimetinib (NSC 768068), eltanexor (KPT-8602, NSC 794443), abemaciclib (NSC 768073), sotorasib (NSC818433), adagrasib (NSC 831453), MRTX-1133 (NSC 836407), Iadademestat (ORY1001, NSC 806812), and RMC-4630 (NSC839698), were obtained from the NCI Developmental Therapeutics Program Chemical Repository. The FDA-approved anticancer drug set is available from the Developmental Therapeutics Program at https://dtp.cancer.gov/organization/dscb/obtaining/available plates.htm. […] The stock solutions were prepared in dimethyl sulfoxide (DMSO, Sigma-Aldrich, St. Louis, MO, cat. D2650) at 800-fold the tested concentration and stored at -70 degrees C prior to their use. All drugs and investigational agents were tested over a range starting from a high concentration at or near the clinical Cmax and decreasing in half-log increments. If the clinical Cmax for an agent had not been determined, the highest concentration tested was 10 microM.
The patient-derived cancer (PDC) cell lines include five colon adenocarcinomas: 186277-243-T-J2-PDC, 616215-338-R-J1-PDC, 439559-082-T-J2-PDC, 463943-066-T-J2-PDC, and 519858-162-T-J1-PDC; three pancreatic carcinomas: 323965-272-R-J2-PDC, 521955-158-R6-J3-PDC, and 521955-158-R2-J5-PDC; two uterine sarcomas: 327498-152-R-J2-PDC and 993429-296-R-J1-PDC; two rhabdomyosarcomas: 755483-174-R-J1-PDC and 772245-204-R-J1-PDC; two soft tissue sarcomas: 126254-015-R-J1-PDC and 494315-158-R-J1-PDC; two malignant fibrous histiocytomas: 317291-083-R-J1-PDC and 596521-263-R-J1-PDC; two breast carcinomas: 171881-019-R-J1-PDC and 885512-296-R-J2-PDC; and one ovarian carcinoma: 6556581-035-R-J-PDC were obtained from the NCI PDMR, (https://pdmr.cancer.gov). The established cell lines HSSY-2 synovial sarcoma (RRID:CVCL 8719), SYO-1 synovial sarcoma (RRID:CVCL_7146), MPNST malignant peripheral neural sheath tumor were obtained from the Sloan Kettering Institute. The following established cell lines were purchased from the American Type Culture Collection (ATCC, Manassas, VA), Sor the received from the NCI repository:, PANC-1 pancreatic carcinoma (CRL-1469, RRID:CVCL_0480), OVCAR-5 ovarian carcinoma (RRID:CVCL_1628), OVCAR-8 ovarian carcinoma (RRID:CVCL_1629), , MCF-7 breast carcinoma (CRL-12584, RRID:CVCL_0031), MDA-MB-231 breast carcinoma (CRL-12532, RRID:CVCL_0062), NCI-H1876 small cell lung carcinoma (CRL-5902, RRID:CVCL_1503), NCI-H510A small cell lung carcinoma (HTB-184, RRID:CVCL_1565), NCI-H1417 (CRL-5869, RRID:CVCL_1469), and NCI-H196 small cell lung carcinoma (CRL-5823, RRID:CVCL_1509). Dr. Peter Houghton (Greehey Children's Cancer Research Institute, University of Texas Health Science Center, San Antonio, TX) provided Rh-18 rhabdomyosarcoma (RRID:CVCL_1659). Pooled donor human umbilical vein endothelial cells (HUVEC, Lonza, cat. CC-2519) and human mesenchymal stem cells (hMSC, Lonza, cat. PT-2501) were purchased from Lonza (Walkersville, MD).
Cell Culture. […]

Where [1] appears, read: compound alone, run of 10/11/2022.

Molecules are shown by their SMILES. Where “and” joins values, the source holds several entries; their conditions need not be identical. Equal entries are not always repeated. Where only a bound is given, the exact number is not on record here.
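Note: spheroids exposed to agents for 7 days starting day 3 after seeding.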
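Throughout, for viability, T/C: percent of DMSO vehicle control viability with 100% = vehicle.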

Regarding `C#Cc1c(F)ccc2cc(O)cc(-c3ncc4c(N5CC6CCC(C5)N6)nc(OCC56CCCN5CC(F)C6)nc4c3F)c12` (stereo not drawn), the viability, T/C – broadly, the result in the treated group divided by that in the control group, in per cent – reads like this: (compound 0.0316 µM) 95.9% and 87.4% and 92.5%; (compound 0.1 µM) 77.6% and 80.5% and 82.3%; (compound 0.316 µM) 68.5% and 59.4% and 65.4%; (compound 1 µM) 64.9% and 53.9% and 55.5%; (compound 3.16 µM) 55.5% and 55.7% and 51.2%; (compound 10 µM) 41% and 37.7% and 39.6%. For the same molecule, the IC50 – broadly, the midpoint of a concentration-inhibition curve – (curve of compound) is 4.3 µM and 2.36 µM and 2.43 µM.
Regarding `C=C(F)C(=O)N1CCN(c2nc(OCC3CCCN3C)nc3c2CCN(c2cccc4cccc(Cl)c24)C3)CC1CC#N` (stereo not drawn), the viability, T/C reads like this: (compound 0.0316 µM) 91.3% and 104% and 106%; (compound 0.1 µM) 90% and 103% and 109%; (compound 0.316 µM) 90.5% and 97.4% and 104%; (compound 1 µM) 96.6% and 97.8% and 102%; (compound 3.16 µM) 102% and 86.9% and 95%; (compound 10 µM) 7.1% and 14.9% and 23.5%. Besides, under “curve of compound”, the IC50 was 5.67 µM and 5.69 µM and 6.54 µM.
For the molecule `C=CC(=O)N1CCN(c2nc(=O)n(-c3c(C)ccnc3C(C)C)c3nc(-c4c(O)cccc4F)c(F)cc23)C(C)C1` (stereo not drawn), the viability, T/C was 96.5% and 102% (2×) (compound 0.0316 µM); 114% and 106% and 101% (compound 0.1 µM); 103% and 102% and 108% (compound 0.316 µM); 104% and 106% and 114% (compound 1 µM); 108% and 106% and 92.2% (compound 3.16 µM); 103% (2×) and 101% (compound 10 µM). In addition, the concentration for half-maximal inhibition (IC50) (curve of compound) was > 10 µM.
Regarding `CCN1C(C(=O)NC23CCC(C(=O)O)(CC2)CC3)C(c2cccc(Cl)c2F)C2(C(=O)Nc3cc(Cl)ccc32)C12CCCCC2` (stereo not drawn), the viability, T/C is 105% and 100% (compound 0.00949 µM); 101% [middle of 15 runs] (compound 0.03 µM); 99.9% [middle of 15 runs] (compound 0.0949 µM); 96.8% [middle of 15 runs] (compound 0.3 µM); 102% [middle of 15 runs] (compound 0.949 µM); 92.1% [middle of 15 runs] (compound 3 µM). Further, the IC50 reads like this: under setting [1], > 3 µM; (curve of compound) > 3 µM.
For `CCN1CCN(Cc2ccc(Nc3ncc(F)c(-c4cc(F)c5nc(C)n(C(C)C)c5c4)n3)nc2)CC1`, the viability, T/C (compound 0.00316 µM) is 105% and 98.4% and 99.2%; the viability, T/C (compound 0.01 µM) is 111% and 104% and 97.7%; the viability, T/C (compound 0.0316 µM) was 89.4% and 96.5% and 95.8%; the viability, T/C (compound 0.1 µM) is 92% and 89.7% and 89.2%; the viability, T/C (compound 0.316 µM) is 93.1% and 92.7% and 81.8%; the viability, T/C (compound 1 µM) was 84.8% and 84.4% and 70.8%. For the setting “curve of compound”, the IC50 is > 1 µM.
In the case of `CNC(C)C(=O)NC1CN(S(=O)(=O)c2cccc(S(=O)(=O)N3CCC4CCC(C(=O)NC(c5ccccc5)c5ccccc5)N4C(=O)C(NC(=O)C(C)NC)C3)c2)CCC2CCC(C(=O)NC(c3ccccc3)c3ccccc3)N2C1=O` (stereo not drawn), the viability, T/C was 103% [middle of 9 runs] (compound 0.01 µM); 98.1% [middle of 8 runs] (compound 0.0316 µM); 99.7% [middle of 9 runs] (compound 0.1 µM); 98.3% [middle of 9 runs] (compound 0.316 µM); 88.1% [middle of 9 runs] (compound 1 µM). Moreover, the half-maximal inhibitory concentration (IC50) was > 1 µM (compound alone, run of 11/15/2022) and > 1 µM (curve of compound).
As to `COc1c(OCCCN2CCOCC2)ccc2c3n(c(=NC(=O)c4cnc(N)nc4)nc12)CCN3`, the viability, T/C is 100% and 101% and 93.5% (compound 0.00316 µM); 104% (2×) and 90.9% (compound 0.01 µM); 81.6% and 87.4% and 102% (compound 0.0316 µM); 78.7% and 76.9% and 72.9% (compound 0.1 µM); 80% and 71.6% and 75.5% (compound 0.316 µM); 58.6% and 59% and 69.4% (compound 1 µM). Under “curve of compound”, the half-inhibitory concentration (IC50) is > 1 µM.
On to `Cc1c(S(C)(=O)=O)c(-c2cc(F)cc(N3CCN(c4ccc(NS(=O)(=O)c5ccc(NC(CCN6CCC(C(=O)OCCCP(=O)(O)O)CC6)CSc6ccccc6)c(S(=O)(=O)C(F)(F)F)c5)cc4)CC3)c2)c(-c2ccc(Cl)cc2)n1C(C)C` (stereo not drawn), for which the viability, T/C by setting is: (compound 0.1 µM) 97.4% [middle of 14 runs]; (compound 0.316 µM) 97.4% [middle of 14 runs]; (compound 1 µM) 91% [middle of 14 runs]; (compound 3.16 µM) 87.2% [middle of 14 runs]; (compound 10 µM) 74.9% [middle of 14 runs]. Besides, the IC50 under setting [1] was > 10 µM.
With `Cc1nc(N2CCC3(CC2)COC(C)C3N)c(CO)nc1Sc1ccnc(N)c1Cl` (stereo not drawn), the viability, T/C is, setting by setting: (compound 0.00949 µM) 89.8% and 104% and 107%; (compound 0.03 µM) 93.7% and 111% and 108%; (compound 0.0949 µM) 102% and 99.4% and 101%; (compound 0.3 µM) 110% and 91.8% and 99.9%; (compound 0.949 µM) 99.8% and 94.1% and 92%; (compound 3 µM) 72.1% and 79.7% and 81.7%. Besides, the IC50 (curve of compound) was > 3 µM.
Consider `Cn1ncnc1[C@H]1c2n[nH]c(=O)c3cc(F)cc(c23)N[C@@H]1c1ccc(F)cc1`, for which the viability, T/C is 104% and 97.5% and 103% (compound 0.000316 µM); 108% and 97.8% and 112% (compound 0.001 µM); 97.6% and 103% and 92% (compound 0.00316 µM); 95.5% and 95.2% and 97.6% (compound 0.01 µM); 102% and 105% and 107% (compound 0.0316 µM); 98.1% and 92.3% and 98.5% (compound 0.1 µM). For the same molecule, the IC50 (curve of compound) is > 0.1 µM.
`NC(=O)C(=Cn1cnc(-c2cc(C(F)(F)F)cc(C(F)(F)F)c2)n1)c1cncnc1`: the viability, T/C by setting is: (compound 0.000949 µM) 111% and 110% and 105%; (compound 0.003 µM) 105% and 102% and 86.8%; (compound 0.00949 µM) 101% and 99% and 94.4%; (compound 0.03 µM) 101% and 91.7% and 89.8%; (compound 0.0949 µM) 92.7% and 89.7% and 90.7%; (compound 0.3 µM) 82% and 86.4% and 78.2%. Further, the 50% inhibitory concentration (IC50) (curve of compound) is > 0.3 µM.
For `NC1CCC(NC2CC2c2ccccc2)CC1` (stereo not drawn), the viability, T/C is, setting by setting: (compound 0.000316 µM) 106% and 107% and 103%; (compound 0.001 µM) 119% and 117% and 92.5%; (compound 0.00316 µM) 112% and 106% and 107%; (compound 0.01 µM) 114% and 108% and 92.8%; (compound 0.0316 µM) 109% and 103% and 96%; (compound 0.1 µM) 112% and 106% and 95.2%. The IC50 (curve of compound) is > 0.1 µM.
Consider `O=C(c1cc(Cc2n[nH]c(=O)c3ccccc23)ccc1F)N1CCN(C(=O)C2CC2)CC1`, for which the viability, T/C is 98.8% and 105% and 96.8% (compound 0.0316 µM); 111% and 109% and 90.9% (compound 0.1 µM); 99.9% and 95% and 96.8% (compound 0.316 µM); 101% and 97.8% and 111% (compound 1 µM); 105% and 104% and 106% (compound 3.16 µM); 102% and 100% and 83.9% (compound 10 µM). Further, the half-inhibitory concentration (IC50) (curve of compound) was > 10 µM.
For the molecule `O=C(c1ccc(F)c(F)c1Nc1ccc(I)cc1F)N1CC(O)([C@@H]2CCCCN2)C1`, the viability, T/C (compound 0.00316 µM) was 101% and 106% (2×); the viability, T/C (compound 0.01 µM) is 95.1% and 106% and 95.4%; the viability, T/C (compound 0.0316 µM) is 96.9% and 81.6% and 88.7%; the viability, T/C (compound 0.1 µM) is 63.6% and 60.9% and 69.5%; the viability, T/C (compound 0.316 µM) was 58% and 50.6% and 49.3%; the viability, T/C (compound 1 µM) was 13.8% and 24.2% and 28.6%. The IC50 (curve of compound) was 0.334 µM and 0.24 µM and 0.307 µM.
